The results in this text go back to patent publication US20220380763A1, “NUCLEIC ACID DELIVERY ENHANCER” (NATIONAL UNIVERSITY CORPORATION KOCHI UNIVERSITY, priority 2019, published 2022).

Where two headings read alike, the source gives them in different places. Numbered stars: 1 amine (or outer) side, 2 acyl side, 3 side chain; on linkers, the order of the positions; unused ones are H or OH. Square brackets hold non-standard residues; d marks the D form. Peptide text beside a SMILES is read from it. * marks the point of attachment. Pteroyl = Nc1nc2ncc(CNc3ccc(C(=O)*)cc3)nc2c(=O)[nH]1; γGlu = O=C(O)[C@H](CCC(=O)[*:2])N[*:1]; Dab = NCC[C@H](N)C(=O)O

Assay [1] concerns S2-013 pancreatic cancer cells. The following applies: for incorporation efficiency of siRNA: among 1 to 3 equivalents; for incorporation efficiency of siRNA compared with Dab8: best equivalent versus Dab8 of 1 to 3 equivalents. As to the method:
Since it is difficult to distinguish between intracellularly incorporated labels and non-incorporated labels by flow cytometry, the uptake of siRNA into pancreatic cancer cells was observed using a confocal microscope.
The pancreatic cancer cell line 52-013 (Cell Resource Center for Biomedical Research, Institute of Development, Aging and Cancer, Tohoku University, ID: TKG 0709) was seeded in a 4-well chamber slide (Thermo Fisher Scientific Inc.) at a cell density of 2×10^4 cells/well, and scrambled control siRNA (SEQ ID NOs: 3 and 4) labeled with Alexa647 (Thermo Fisher Scientific Inc.), and Dab8, Fol-Dab8A, or Fol-Dab8B in 1 to 3 equivalents to the siRNA were added and then cultured for 48 hours. The concentration of siRNA used was 8.28 μg/mL in 25 μL, and Dab8, Fol-Dab8A, and Fol-Dab8B were diluted 25-fold from the stock solution (Dab8: 119.3 μg/mL, Fol-Dab8A and Fol-Dab8B: 141.2 μg/mL) and used. The amounts corresponding to 1, 2, and 3 equivalents relative to siRNA are 3.9 μL, 7.8 μL, and 11.7 μL, respectively.
The next day, the cells were fixed with 4% paraformaldehyde, sealed with a DAPI-containing encapsulant, and then observed with an all-in-one fluorescence microscope (BZ-X800, Keyence Corporation).
To quantify the uptake, the hybrid cell count function of the Keyence analysis software BZ-X800 Analyzer was used to count cells into which siRNA was taken up in the presence of Dab8, Fol-Dab8A, and Fol-Dab8B. Determination was made by measuring cells with dark staining of at least ⅓ of the cell nuclei and cells with dark clumps in the periphery of the cell nuclei.

Assay [2] has as its system NUP85. The following applies: NUP85 siRNA (SEQ ID NOs: 7 and 8) in combination; Dab8 1 eq, Fol-Dab8A 3 eq, Fol-Dab8B 1 eq; S2-013 cells, 48 hours. As to the method:
(§1) Scrambled control siRNA (SEQ ID NOs: 3 and 4), SNORA18 siRNA (SEQ ID NOs: 5 and 6), NUP85 siRNA (SEQ ID NOs: 7 and 8), WASF2 siRNA (SEQ ID NOs: 9 and 10), and SNORA22 siRNA (SEQ ID NOs: 11 and 12), to which a cationic oligopeptide or a folic acid-cationic peptide was added (a complex of Dab8 with siRNA in 1 equivalent, a complex of Fol-Dab8A with siRNA in 3 equivalents, and a complex of Fol-Dab8B with siRNA in 1 equivalent), were each added to the culture solution the S2-013 cells in a 6-well plate (Thermo Fisher Scientific Inc.) (1.0×10^5 cells/well), and the cells were recovered after 48 hours.
(§2) Semi-quantitative RT-PCR was performed using RNA from the recovered cells to confirm the knockdown effects of SNORA18, NUP85, WASF2, and SNORA22 in the cells.
(§3) Specifically, the total RNA obtained from the S2-013 cells was reverse-transcribed using StrataScript reverse transcriptase (Agilent) and random primers. Appropriate dilutions of each single-stranded cDNA were prepared for subsequent PCR amplification. GAPDH mRNA was used as an internal quantitative control.
(§4) PCR reactions were performed on a TaKaRa PCR Thermal Cycler Dice Gradient with initial denaturation at 94° C. for 2 minutes, followed by 94° C. for 30 seconds, 58° C. for 30 seconds, and 72° C. for 1 minute for 21 cycles (for GAPDH) or 25 cycles (for SNORA18, NUP85, WASF2, and SNORA22). Scanning and densitometric analysis for band intensity measurements were performed using the Quantity One analysis system (Bio-Rad).

Assay [3] deals with SNORA18. The conditions noted are these: SNORA18 siRNA (SEQ ID NOs: 5 and 6) in combination; Dab8 1 eq, Fol-Dab8A 3 eq, Fol-Dab8B 1 eq; S2-013 cells, 48 hours. As to the method: as §1, §2, §3, §4
Assay [4] relates to SNORA22. The conditions noted are these: SNORA22 siRNA (SEQ ID NOs: 11 and 12) in combination; Dab8 1 eq, Fol-Dab8A 3 eq, Fol-Dab8B 1 eq; S2-013 cells, 48 hours. As to the method:
as §1, §2, §3, §4

Assay [5] relates to WASF2. The following applies: WASF2 siRNA (SEQ ID NOs: 9 and 10) in combination; Dab8 1 eq, Fol-Dab8A 3 eq, Fol-Dab8B 1 eq; S2-013 cells, 48 hours. As to the method: as §1, §2, §3, §4
The subject of assay [6] is pancreatic cancer tissue of mice carrying human pancreatic cancer organoids derived from S2-013 pancreatic cancer cells. The following applies: for delivery of SNORA22 siRNA to pancreatic cancer tissue: 5 μg siRNA tail vein, 24 hours. As to the method: Human pancreatic cancer organoids were prepared using 52-013 pancreatic cancer cells by modifying the method described in JP Patent Application Publication No. 2018-110575 A1.
Specifically, the S2-013 pancreatic cancer cells (20×10^4 cells), human mesenchymal stem cells MSC (LONZA, 40×10^4 cells), and human umbilical vein endothelial cells HUVEC (LONZA, 14×10^4 cells) were added to DMEM/Matrigel mixed solution in a 48-well plate (Thermo Fisher Scientific Inc.) and incubated in a CO2 incubator at 37° C. for 30 minutes.
Then, 300 μL/well of DMEM/EGM mixed solution was added thereto and incubated again at 37° C. for 24 hours to prepare one pancreatic cancer organoid in each well.
Subsequently, the skin on the flank of nude mice (6-week-old BALB/cSlc-nu/nu (Pathogen-free female athymic nude mice), Japan SLC, Inc.) was incised, and the pancreatic cancer organoids obtained above were subcutaneously transplanted (2 mice in each group).
Six weeks after transplantation, the chemically-modified SNORA22 siRNA (SEQ ID NOs: 27 and 28, 5 μg) labeled with Alexa-594 was administered with 1, 2, or 3 equivalents of the cationic oligopeptide (Dab8) or the folic acid-cationic oligopeptide complex (Fol-Dab8A or Fol-Dab8B) by tail vein injection. After 24 hours, images were taken with an in vivo imager.
Measuring instrument: Spectrum In Vivo Imaging System (PerkinElmer, Inc., Waltham, Mass.)
Measurement condition: kexc 640 nm, kemi 680 nm
In the same manner as in Example 11, the delivery of chemically-modified SNORA18 siRNA (SEQ ID NOs: 21 and 22) to pancreatic cancer-carrying mice when administered with the folic acid-cationic oligopeptide complex (Fol-Dab8A or Fol-Dab8B) was imaged using an in vivo imager.
In the same manner as in Examples 11 and 13, the delivery of chemically-modified WASF2 siRNA (SEQ ID NOs: 25 and 26) to pancreatic cancer-carrying mice when administered with the folic acid-cationic oligopeptide complex (Fol-Dab8A or Fol-Dab8B) was imaged using an in vivo imager.

Setting [7] is: chemically-modified SNORA18 siRNA, 1 to 3 equivalents.
The mark [8] stands for this setting: chemically-modified WASF2 siRNA, 1 to 3 equivalents.
Where [9] appears, read: compared to Dab8, 1 to 3 equivalents.

Turning to `NCC[C@H](NC(=O)[C@H](CCN)NC(=O)[C@H](CCN)NC(=O)[C@H](CCN)NC(=O)[C@H](CCN)NC(=O)[C@H](CCN)NC(=O)[C@H](CCN)NC(=O)[C@H](CCN)NC(=O)CNC(=O)CNC(=O)CNC(=O)CC[C@H](NC(=O)c1ccc(NCc2cnc3nc(N)[nH]c(=O)c3n2)cc1)C(=O)O)C(N)=O` [Fol-Dab8A] ({Pteroyl-γGlu}-GGG[Dab][Dab][Dab][Dab][Dab][Dab][Dab][Dab]-NH2), the “incorporation efficiency of siRNA” value in assay [1] (3 equivalents) is “highest incorporation efficiency”. Besides, the “incorporation efficiency of siRNA compared with Dab8” value in assay [1] is recorded as “higher than Dab8”. Besides, in assay [2], the “knockdown effect on NUP85” value is recorded as “remarkable knockdown effects”. The “knockdown effect on SNORA18” value in assay [3] is “remarkable knockdown effects”. The “knockdown effect on SNORA22” value in assay [4] was “remarkable knockdown effects”. Besides, in assay [5], the “knockdown effect on WASF2” value was “remarkable knockdown effects”. Besides, the figures for the “delivery of SNORA18 siRNA to pancreatic cancer tissue” value in assay [6] (1 equivalent), in assay [6] (3 equivalents) and in assay [6] (setting [7]) were “high concentration”, “high concentration” and “enhanced”, respectively. The “delivery of SNORA22 siRNA to pancreatic cancer tissue” value is on record as “high concentration” in assay [6] (3 equivalents) and “enhanced” in assay [6] (setting [9]). Also, in assay [6] (setting [8]), the “delivery of WASF2 siRNA to pancreatic cancer tissue” value is recorded as “enhanced”.

With `NCC[C@H](NC(=O)[C@H](CCN)NC(=O)[C@H](CCN)NC(=O)[C@H](CCN)NC(=O)[C@H](CCN)NC(=O)[C@H](CCN)NC(=O)[C@H](CCN)NC(=O)[C@H](CCN)NC(=O)CNC(=O)CNC(=O)CNC(=O)[C@H](CCC(=O)O)NC(=O)c1ccc(NCc2cnc3nc(N)[nH]c(=O)c3n2)cc1)C(N)=O` [Fol-Dab8B] (Pteroyl-EGGG[Dab][Dab][Dab][Dab][Dab][Dab][Dab][Dab]-NH2), the “incorporation efficiency of siRNA” value in assay [1] (1 equivalent) is listed as “highest incorporation efficiency”. Besides, the “incorporation efficiency of siRNA compared with Dab8” value in assay [1] is “higher than Dab8”. Also, the “knockdown effect on NUP85” value in assay [2] is listed as “remarkable knockdown effects”. The “knockdown effect on SNORA18” value in assay [3] is reported as “remarkable knockdown effects”. Besides, the “knockdown effect on SNORA22” value in assay [4] is on record as “remarkable knockdown effects”. For the same compound, the “knockdown effect on WASF2” value in assay [5] is given as “remarkable knockdown effects”. For the same compound, the “delivery of WASF2 siRNA to pancreatic cancer tissue” value is listed as “high concentration” in assay [6] (1 equivalent), “high concentration” in assay [6] (3 equivalents) and “enhanced” in assay [6] (setting [8]). For the same compound, the “delivery of SNORA22 siRNA to pancreatic cancer tissue” value in assay [6] (2 equivalents) is reported as “high concentration”; in assay [6] (setting [9]), “enhanced”. For the same compound, the “delivery of SNORA18 siRNA to pancreatic cancer tissue” value in assay [6] (setting [7]) was “enhanced”.
